{"source": "patent US11634404B2", "about": "(priority 2016, dated 2023)", "assay_type_in_all_cases": "cell-based", "key": {"panel of 168 GPCRs [1]": {"biological_target": "panel of 168 GPCRs (Homo sapiens, UniProt O14842)", "details": "GPCR FFAR1; agonist, 10 μM"}, "panel of 168 GPCRs [2]": {"biological_target": "panel of 168 GPCRs (Homo sapiens, UniProt O43614)", "details": "GPCR HCRTR2; agonist, 10 μM"}, "panel of 168 GPCRs [3]": {"biological_target": "panel of 168 GPCRs (Homo sapiens, UniProt O95838)", "details": "GPCR GLP2R; agonist, 10 μM"}, "panel of 168 GPCRs [4]": {"biological_target": "panel of 168 GPCRs (Homo sapiens, UniProt P08908)", "details": "GPCR HTR1A; agonist, 10 μM"}, "panel of 168 GPCRs [5]": {"biological_target": "panel of 168 GPCRs (Homo sapiens, UniProt P0DMS8)", "details": "GPCR ADORA3; agonist, 10 μM"}, "panel of 168 GPCRs [6]": {"biological_target": "panel of 168 GPCRs (Homo sapiens, UniProt P11229)", "details": "GPCR CHRM1; agonist, 10 μM"}, "panel of 168 GPCRs [7]": {"biological_target": "panel of 168 GPCRs (Homo sapiens, UniProt P18089)", "details": "GPCR ADRA2B; agonist, 10 μM"}, "panel of 168 GPCRs [8]": {"biological_target": "panel of 168 GPCRs (Homo sapiens, UniProt P21462)", "details": "GPCR FPR1; agonist, 10 μM"}, "panel of 168 GPCRs [9]": {"biological_target": "panel of 168 GPCRs (Homo sapiens, UniProt P21728)", "details": "GPCR DRD1; agonist, 10 μM"}, "panel of 168 GPCRs [10]": {"biological_target": "panel of 168 GPCRs (Homo sapiens, UniProt P21731)", "details": "GPCR TBXA2R; agonist, 10 μM"}, "panel of 168 GPCRs [11]": {"biological_target": "panel of 168 GPCRs (Homo sapiens, UniProt P25021)", "details": "GPCR HRH2; agonist, 10 μM"}, "panel of 168 GPCRs [12]": {"biological_target": "panel of 168 GPCRs (Homo sapiens, UniProt P30518)", "details": "GPCR AVPR2; agonist, 10 μM"}, "panel of 168 GPCRs [13]": {"biological_target": "panel of 168 GPCRs (Homo sapiens, UniProt P30559)", "details": "GPCR OXTR; agonist, 10 μM"}, "panel of 168 GPCRs [14]": {"biological_target": "panel of 168 GPCRs (Homo sapiens, UniProt P30872)", "details": "GPCR SSTR1; agonist, 10 μM"}, "panel of 168 GPCRs [15]": {"biological_target": "panel of 168 GPCRs (Homo sapiens, UniProt P32238)", "details": "GPCR CCKAR; agonist, 10 μM"}, "panel of 168 GPCRs [16]": {"biological_target": "panel of 168 GPCRs (Homo sapiens, UniProt P33032)", "details": "GPCR MC5R; agonist, 10 μM"}, "panel of 168 GPCRs [17]": {"biological_target": "panel of 168 GPCRs (Homo sapiens, UniProt P34972)", "details": "GPCR CNR2; agonist, 10 μM"}, "panel of 168 GPCRs [18]": {"biological_target": "panel of 168 GPCRs (Homo sapiens, UniProt P35346)", "details": "GPCR SSTR5; agonist, 10 μM"}, "panel of 168 GPCRs [19]": {"biological_target": "panel of 168 GPCRs (Homo sapiens, UniProt P35462)", "details": "GPCR DRD3; agonist, 10 μM"}, "panel of 168 GPCRs [20]": {"biological_target": "panel of 168 GPCRs (Homo sapiens, UniProt P41597)", "details": "GPCR CCR2; agonist, 10 μM"}, "panel of 168 GPCRs [21]": {"biological_target": "panel of 168 GPCRs (Homo sapiens, UniProt P43116)", "details": "GPCR PTGER2; agonist, 10 μM"}, "panel of 168 GPCRs [22]": {"biological_target": "panel of 168 GPCRs (Homo sapiens, UniProt P48546)", "sequence (P48546 22-466 limits assumed)": "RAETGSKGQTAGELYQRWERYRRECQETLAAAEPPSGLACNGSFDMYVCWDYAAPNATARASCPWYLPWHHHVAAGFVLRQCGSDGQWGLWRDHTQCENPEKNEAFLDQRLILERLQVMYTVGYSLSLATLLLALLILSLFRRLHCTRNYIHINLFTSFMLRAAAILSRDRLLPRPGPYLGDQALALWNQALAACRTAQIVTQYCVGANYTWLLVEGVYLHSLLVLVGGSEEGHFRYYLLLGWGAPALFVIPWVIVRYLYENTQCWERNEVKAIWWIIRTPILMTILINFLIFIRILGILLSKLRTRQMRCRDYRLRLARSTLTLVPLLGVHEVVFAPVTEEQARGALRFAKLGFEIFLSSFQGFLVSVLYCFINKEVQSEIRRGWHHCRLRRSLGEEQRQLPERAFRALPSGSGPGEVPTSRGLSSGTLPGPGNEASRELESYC", "details": "GPCR GIPR; agonist, 10 μM"}, "panel of 168 GPCRs [23]": {"biological_target": "panel of 168 GPCRs (Homo sapiens, UniProt P49682)", "details": "GPCR CXCR3; agonist, 10 μM"}, "panel of 168 GPCRs [24]": {"biological_target": "panel of 168 GPCRs (Homo sapiens, UniProt P49683)", "details": "GPCR PRLHR; agonist, 10 μM"}, "panel of 168 GPCRs [25]": {"biological_target": "panel of 168 GPCRs (Homo sapiens, UniProt P51681)", "details": "GPCR CCR5; agonist, 10 μM"}, "panel of 168 GPCRs [26]": {"biological_target": "panel of 168 GPCRs (Homo sapiens, UniProt P51685)", "details": "GPCR CCR8; agonist, 10 μM"}, "panel of 168 GPCRs [27]": {"biological_target": "panel of 168 GPCRs (Homo sapiens, UniProt P61073)", "details": "GPCR CXCR4; agonist, 10 μM"}, "panel of 168 GPCRs [28]": {"biological_target": "panel of 168 GPCRs (Homo sapiens, UniProt Q01726)", "details": "GPCR MC1R; agonist, 10 μM"}, "panel of 168 GPCRs [29]": {"biological_target": "panel of 168 GPCRs (Homo sapiens, UniProt Q96LB1)", "details": "GPCR MRGPRX2; agonist, 10 μM"}, "panel of 168 GPCRs [30]": {"biological_target": "panel of 168 GPCRs (Homo sapiens, UniProt Q9H244)", "details": "GPCR P2RY12; agonist, 10 μM"}, "panel of 168 GPCRs [31]": {"biological_target": "panel of 168 GPCRs (Homo sapiens, UniProt Q9HC97)", "details": "GPCR GPR35; agonist, 10 μM"}, "panel of 168 GPCRs [32]": {"biological_target": "panel of 168 GPCRs (Homo sapiens, UniProt Q9UKP6)", "details": "GPCR UTR2; agonist, 10 μM"}}, "data": [{"smiles": "COc1ccc(OCCN2CCN(C(=O)c3cc4ccccc4[nH]3)CC2)cc1", "note": "[Compound 1, (1H-indol-2-yl)(4-(2-(4-methoxyphenoxy)ethyl)piperazin-1-yl)methanone]", "values": [{"measurement": "β-Arrestin Recruitment activity", "setting": "panel of 168 GPCRs [1]", "result": 4, "unit": "%"}, {"measurement": "β-Arrestin Recruitment activity", "setting": "panel of 168 GPCRs [2]", "result": 0, "unit": "%"}, {"measurement": "β-Arrestin Recruitment activity", "setting": "panel of 168 GPCRs [3]", "result": 0, "unit": "%"}, {"measurement": "β-Arrestin Recruitment activity", "setting": "panel of 168 GPCRs [4]", "result": 8, "unit": "%"}, {"measurement": "β-Arrestin Recruitment activity", "setting": "panel of 168 GPCRs [5]", "result": 8, "unit": "%"}, {"measurement": "β-Arrestin Recruitment activity", "setting": "panel of 168 GPCRs [6]", "result": 5, "unit": "%"}, {"measurement": "β-Arrestin Recruitment activity", "setting": "panel of 168 GPCRs [7]", "result": "−4", "unit": "%"}, {"measurement": "β-Arrestin Recruitment activity", "setting": "panel of 168 GPCRs [8]", "result": 5, "unit": "%"}, {"measurement": "β-Arrestin Recruitment activity", "setting": "panel of 168 GPCRs [9]", "result": 0, "unit": "%"}, {"measurement": "β-Arrestin Recruitment activity", "setting": "panel of 168 GPCRs [10]", "result": 0, "unit": "%"}, {"measurement": "β-Arrestin Recruitment activity", "setting": "panel of 168 GPCRs [11]", "result": 3, "unit": "%"}, {"measurement": "β-Arrestin Recruitment activity", "setting": "panel of 168 GPCRs [12]", "result": 4, "unit": "%"}, {"measurement": "β-Arrestin Recruitment activity", "setting": "panel of 168 GPCRs [13]", "result": 0, "unit": "%"}, {"measurement": "β-Arrestin Recruitment activity", "setting": "panel of 168 GPCRs [14]", "result": 0, "unit": "%"}, {"measurement": "β-Arrestin Recruitment activity", "setting": "panel of 168 GPCRs [15]", "result": 0, "unit": "%"}, {"measurement": "β-Arrestin Recruitment activity", "setting": "panel of 168 GPCRs [16]", "result": 5, "unit": "%"}, {"measurement": "β-Arrestin Recruitment activity", "setting": "panel of 168 GPCRs [17]", "result": "−14", "unit": "%"}, {"measurement": "β-Arrestin Recruitment activity", "setting": "panel of 168 GPCRs [18]", "result": 3, "unit": "%"}, {"measurement": "β-Arrestin Recruitment activity", "setting": "panel of 168 GPCRs [19]", "result": 164, "unit": "%"}, {"measurement": "β-Arrestin Recruitment activity", "setting": "panel of 168 GPCRs [20]", "result": 4, "unit": "%"}, {"measurement": "β-Arrestin Recruitment activity", "setting": "panel of 168 GPCRs [21]", "result": "−3", "unit": "%"}, {"measurement": "β-Arrestin Recruitment activity", "setting": "panel of 168 GPCRs [22]", "result": 3, "unit": "%"}, {"measurement": "β-Arrestin Recruitment activity", "setting": "panel of 168 GPCRs [23]", "result": 5, "unit": "%"}, {"measurement": "β-Arrestin Recruitment activity", "setting": "panel of 168 GPCRs [24]", "result": 4, "unit": "%"}, {"measurement": "β-Arrestin Recruitment activity", "setting": "panel of 168 GPCRs [25]", "result": 0, "unit": "%"}, {"measurement": "β-Arrestin Recruitment activity", "setting": "panel of 168 GPCRs [26]", "result": 0, "unit": "%"}, {"measurement": "β-Arrestin Recruitment activity", "setting": "panel of 168 GPCRs [27]", "result": 17, "unit": "%"}, {"measurement": "β-Arrestin Recruitment activity", "setting": "panel of 168 GPCRs [28]", "result": 5, "unit": "%"}, {"measurement": "β-Arrestin Recruitment activity", "setting": "panel of 168 GPCRs [29]", "result": 5, "unit": "%"}, {"measurement": "β-Arrestin Recruitment activity", "setting": "panel of 168 GPCRs [30]", "result": 4, "unit": "%"}, {"measurement": "β-Arrestin Recruitment activity", "setting": "panel of 168 GPCRs [31]", "result": 6, "unit": "%"}, {"measurement": "β-Arrestin Recruitment activity", "setting": "panel of 168 GPCRs [32]", "result": 0, "unit": "%"}]}]}
